Results: patent publication US7358249B2, “Heterocyclic compounds having inhibitory activity against HIV integrase” (Shionogi & Co., Ltd., priority 2002, dated 2008)
Values joined by “and” are separate entries in the source; they are usually repeats but may differ in a detail not shown here. Identical values can stand only once.

Key:
HIV integrase = HIV integrase (Human immunodeficiency virus type 1 group M subtype B, UniProt P04585); assay: integrase inhibition assay (microtiter plate, substrate DNA / target DNA); type: biochemical; details: integrase 30 pmol, incubated at 30° C. for 1 hour, OD at 405 nm; concentration at percent inhibition 50%; read-out: MIA, IC50 (ug/ml) (converted)
Description: The inhibitory activities against integrase of the presnt compounds were determined by the assay described below.
(1) Preparation of DNA Solutions
Substrate DNA and target DNA synthesized by Amersham Pharmacia Biotech, which sequences were indicated below, were dissolved in KTE buffer (composition: 100 mM KCl, 1 mM EDTA, 10 mM Tris-HCl (pH 7.6)) at a concentration of 2 pmol/μl and 5 pmol/μl, respectively. The DNA solutions were heated and then slowly cooled so that they were annealed with each complement.
(Sequence of Substrate DNA)
(2) Calculations of the percent inhibitions (IC50 values of test compounds)
Streptavidin, obtained from Vector Laboratories, was dissolved in 0.1 M carbonate buffer (composition: 90 mM Na2CO3, 10 mM NaHCO3) at a concentration of 40 μg/ml. After coating each well of microtiter plates (obtained from NUNC) with 50 μl of the above solution at 4° C. over night, each well was washed twice with PBS (composition: […], 0.27 mM KCl, 0.43 mM Na2HPO4, 0.14 mM KH2PO4) and blocked with 300 μl of 1% skim milk in PBS for 30 min. Additionally, each well was washed twice with PBS and added with 50 μl of the substrate DNA solution (2 pmol/μl). The microtiter plates were kept at room temperature for 30 min. Then, each well was washed twice with PBS and once with H2O.
Subsequently, to the each well prepared above were added 45 μl of the reaction buffer prepared from 12 μl of the buffer (composition: 150 mM MOPS (pH 7.2), 75 mM MnCl2, 50 mM 2-mercaptoethanol, 25% glycerol, 500 μg/ml bovine serum albumin-fraction V), 1 μl of target DNA (5 pmol/μ), and 32 μl of the distilled water. Additionally, 6 μl of either a test compound in DMSO or DMSO for positive control (PC) was mixed with the above reaction buffer, then 9 μl of an integrase solution (30 pmol) was added thereto and the mixture was mixed well. To the well of negative control (NC) was added 9 μl of the integrase dilution buffer (composition: 20 mM MOPS (pH7.2), 400 mM potassium glutamate, 1 mM EDTA, 0.1% NP-40, 20% glycerol, 1 mM DTT, 4 M urea).
The microtiter plates were incubated at 30° C. for 1 hour. The reaction solution was removed and each well was washed twice with PBS. Subsequently, each well of the microtiter plates was filled with 100 μl of anti-digoxigenin antibody labeled with alkaline phosphatase (Sheep Fab fragment: obtained from Boehringer) and incubated at 30° C. for 1 hour. Then, each well was washed twice with 0.05% Tween20 in PBS and once with PBS. Next, 150 μl of the Alkaline phosphatase reaction buffer (composition: 10 mM p-Nitrophenylphosphate (obtained from Vector Laboratories), 5 mM MgCl2, 100 mM NaCl, 100 mM Tris-HCl (pH 9.5)) was added to each well. The microtiter plates were incubated at 30° C. for 2 hours and the reaction was terminated by the addition of 50 μl of 1 N NaOH solution. The optical density (OD) at 405 nm of each well was measured and the percent inhibition was determined by the following expression. The percent inhibition (%)=100[1−{(C abs.−NC abs.)/(PC abs.−NC abs.)}]
C abs.; the OD of the well of the test compound
NC abs.: the OD of the negative control (NC)
PC abs.: the OD of the positive control (PC)
When the percent inhibition (%) is X % at a concentration of x μg/ml and the percent inhibition (%) is Y % at a concentration of y μg/ml, one of which is more than 50% and the other is less than 50%, IC50 can be determined by the following expression. IC50 (μg/ml)=x−{(X−50)(x−y)/(X−Y)}
Compound No. in the Table 1 is the same as compound No. of the above Examples.

Structure (SMILES) | IC50 (HIV integrase) [nM] | melting point
NC(=O)c1cc(C(=O)O)c(O)c2ncc(Cc3ccc(F)cc3)cc12 [Compound I-7, 5-Carbamoyl-3-(4-fluorobenzyl)-8-hydroxyquinoline-7-carboxylic acid] | 705 | 265 to 266 °C
CCOC(=O)Nc1nc(C(=O)OC)c(O)c2ncc(Cc3ccc(F)cc3)cc12 [Compound A-42, 5-[(Ethoxycarbonyl)amino]-3-(4-fluorobenzyl)-8-hydroxy[1,6]naphthylidine-7-carboxylic acid methyl ester] | 576 | 247 to 249 °C
COC(=O)c1nc(C#CCO)c2cc(Cc3ccc(F)cc3)cnc2c1O [Compound A-18, Methyl 3-(4-fluorobenzyl)-8-hydroxy-5-(3-hydroxy-1-propynyl)-1,6-naphthylidine-7-carboxylate] | 655 | 205 to 208 °C
COC(=O)c1cc(C(=O)NCC(=O)N(C)C)c2cc(Cc3ccc(F)cc3)cnc2c1O [Compound I-64, 5-(Dimethylcarbamoylmethylcarbamoyl)-3-(4-fluorobenzyl)-8-hydroxyquinoline-7-carboxylic acid methyl ester] | 979 | 198 to 199 °C
COC(=O)c1cc(CO)c2cc(Cc3ccc(F)cc3)cnc2c1O [Compound I-117, 3-(4-Fluorobenzyl)-8-hydroxy-5-hydroxymethylquinoline-7-carboxylic acid methyl ester] | 208 | 142 to 143 °C
COC(=O)c1cc(N2CCOC2=O)c2cc(Cc3ccc(F)cc3)cnc2c1O [Compound I-183, 3-(4-Fluorobenzyl)-8-hydroxy-5-(2-oxo-oxazolidine-3-yl)-quinoline-7-carboxylic acid methyl ester] | 353 | 152 to 153 °C
COC(=O)c1cc(N)c2cc(Cc3ccc(F)cc3)cnc2c1O [Compound I-8, 5-Amino-3-(4-fluorobenzyl)-8-hydroxyquinoline-7-carboxylic acid methyl ester] | 398 | 114 to 115 °C
COC(=O)c1cc(-c2n[nH]c(C)n2)c2cc(Cc3ccc(F)cc3)cnc2c1O [Compound I-134, 3-(4-Fluorobenzyl)-8-hydroxy-5-(5-methyl-1H-[1,2,4]triazole-3-yl)quinoline-7-carboxylic acid methyl ester] | 357 | 200 to 202 °C and 195 to 196 °C
O=C(O)c1cc(C(=O)O)c2cc(Cc3ccc(F)cc3)cnc2c1O [Compound I-4, 3-(4-Fluorobenzyl)-8-hydroxyquinoline-5,7-dicarboxylic acid] | 352 | 279 to 282 °C
COC(=O)c1nc(C(=O)N2CCN(C)CC2)c2cc(Cc3ccc(F)cc3)cnc2c1O [Compound A-54, 5-(4-Methylpiperadine-1-carbonyl)-3-(4-fluorobenzyl)-8-hydroxy[1,6]naphthylidine-7-carboxylic acid methyl ester] | 1300 | 226 to 227 °C
COC(=O)c1nc(C(=O)OC)c2cc(Cc3ccc(F)cc3)cnc2c1O [Compound A-15, Dimethyl 3-(4-fluorobenzyl)-8-hydroxy-1,6-naphthylidine-5,7-dicarboxylate] | 783 | 191 to 194 °C
COC(=O)c1cc(C(=O)O)c2cc(Cc3ccc(F)cc3)cnc2c1O [Compound I-3, 3-(4-Fluorobenzyl)-8-hydroxy-quinoline-5,7-dicarboxylic acid 7-methylester] | 394 | 237 to 239 °C
COC(=O)c1nc(NS(C)(=O)=O)c2cc(Cc3ccc(F)cc3)cnc2c1O [Compound A-9, Methyl 3-(4-fluorobenzyl)-8-hydroxy-5-methanesulfonylamino-1,6-naphthylidine-7-carboxylate] | 222 | 205 to 210 °C
COC(=O)c1nc(NS(=O)(=O)N(C)C)c2cc(Cc3ccc(F)cc3)cnc2c1O [Compound A-26, Methyl 5-[(dimethylamino)sulfonyl]-amino-3-(4-fluorobenzyl)-8-hydroxy-1,6-naphthylidine-7-carboxylate] | 345 | 159 to 160 °C
CC(=O)N1CCC(OC(=O)c2ncc3cc(Cc4ccc(F)cc4)cnc3c2O)CC1 [Compound A-82, 3-(4-Fluorobenzyl)-8-hydroxy[1,6]naphthylidine-7-carboxylic acid 1-acetylpiperidine-4-yl ester] | 260 | 163 to 165 °C
COC(=O)c1cc(NS(C)(=O)=O)c2cc(Cc3ccc(F)cc3)cnc2c1O [Compound I-12, 3-(4-Fluorobenzyl)-8-hydroxy-5-methanesulfonylaminoquinoline-7-carboxylic acid methyl ester] | 1240 | 189.5 to 190.5 °C
COC(=O)c1nc(C#CCNS(C)(=O)=O)c2cc(Cc3ccc(F)cc3)cnc2c1O [Compound A-50, 3-(4-Fluorobenzyl)-8-hydroxy-5-[3-(methanesulfonyamino)propyn-1-yl][1,6]naphthylidine-7-carboxylic acid methyl ester] | 248 | 223 to 225 °C
COC(=O)c1cc(C(=O)NCCO)c2cc(Cc3ccc(F)cc3)cnc2c1O [Compound I-5, 3-(4-Fluorobenzyl)-8-hydroxy-5-(2-hydroxyethylcarbamoyl)quinoline-7-carboxylic acid methylester] | 502 | 207 to 208 °C
COC(=O)c1cc(N(C)C)c2cc(Cc3ccc(F)cc3)cnc2c1O [Compound I-16, 5-Dimethylamino-3-(4-fluorobenzyl)-8-hydroxyquinoline-7-carboxylic acid methylester] | 451 | 62 to 63 °C
COC(=O)c1nc(NC(=O)c2ccco2)c2cc(Cc3ccc(F)cc3)cnc2c1O [Compound A-66, 3-(4-Fluorobenzyl)-5-(frane-2-carbonyl)amino-8-hydroxy[1,6]naphthylidine-7-carboxylic acid methyl ester] | 688 | 200 to 202 °C
COC(=O)c1cc(NC2CCCCC2)c2cc(Cc3ccc(F)cc3)cnc2c1O [Compound I-15, 5-Cyclohexylamino-3-(4-fluorobenzyl)-8-hydroxyquinoline-7-carboxylic acid methylester] | 1620 | 75.5 to 77.5 °C
CCOC(=O)Nc1cc(C(=O)OC)c(O)c2ncc(Cc3ccc(F)cc3)cc12 [Compound I-9, 5-Ethoxycarbonylamino-3-(4-fluorobenzyl)-8-hydroxyquinoline-7-carboxylic acid methyl ester] | 703 | 205 to 206 °C
COC(=O)c1cc(NC(C)C)c2cc(Cc3ccc(F)cc3)cnc2c1O [Compound I-14, 3-(4-Fluorobenzyl)-8-hydroxy-5-isopropylaminoquinoline-7-carboxylic acid methylester] | 1190 | 121 to 122 °C
COC(=O)c1nc(NC(C)=O)c2cc(Cc3ccc(F)cc3)cnc2c1O [Compound A-10, Methyl 5-acetylamino-3-(4-fluorobenzyl)-8-hydroxy-1,6-naphthylidine-7-carboxylate] | 379 | 263 to 267 °C
COC(=O)c1cc(C(=O)N2CCN(C)CC2)c2cc(Cc3ccc(F)cc3)cnc2c1O [Compound I-48, 3-(4-Fluorobenzyl)-8-hydroxy-5-(4-methyl-piperadine-1-carbonyl)quinoline-7-carboxylic acid methyl ester] | 800 | 184 to 185 °C
